In US11865126B2, “Method for treating anxiety disorders, headache disorders, and eating disorders with psilocybin” (priority 2019, dated 2024):

Test system: healthy subjects
Assay: CANTAB global composite score
Assay type: in vivo, human
Settings: 10 mg vs placebo, Day 7
Protocol: The following list of outcome measures are non-exhaustive. • a. The short-term change from Baseline (Day −1 [Visit 2]) to Day 7 (Visit 5) in cognitive measures of attention, spatial and working memory and executive function was measured by a composite score of the CANTAB Panel (Spatial Working Memory [SWM], Rapid Visual Information Processing [RVP], Paired Associates Learning [PAL]). • b. The short-term change from Baseline (Day −1 [Visit 2]) to Day 7 (Visit 5) in Social Cognition Panel scales (Pictorial Empathy Test [PET], Reading the Mind in the Eyes Test [RMET], Toronto Empathy Questionnaire [TEQ], Social Value Orientation [SVO], Scale of Social Responsibility [SSR]). • c. The change from Baseline (Day −1 [Visit 2]) to Day 28 (Visit 6) in cognitive measures of attention, spatial and working memory and executive function as measured by a composite score of the CANTAB Panel (SWM, RVP, PAL). • d. […] Dose-related differences between cognitive effects of psilocybin at Baseline (Day −1 [Visit 2]), Day 7 (Visit 5) and Day 28 (Visit 6), as measured by a composite score of the CANTAB Panel (SWM, RVP, PAL). • f. Dose-related differences between psychological effects of psilocybin at Baseline (Day −1 [Visit 2]), Day 7 (Visit 5) and Day 84 (Visit 7), as measured by Social Cognition Panel scales (PET, RMET, TEQ, SVO, SSR). • g. […]

With `CN(C)CCc1c[nH]c2cccc(OP(=O)(O)O)c12` [psilocybin] the “CANTAB global composite score, effect size” value was 0.53.
